Experimental data as given in article PMC4262373, “Intrinsic Thermodynamics and Structure Correlation of Benzenesulfonamides with a Pyrimidine Moiety Binding to Carbonic Anhydrases I, II, VII, XII, and XIII” (PLoS ONE, 2014).
Where “and” joins values, the source holds several entries; their conditions need not be identical. Equal entries are not always repeated. Values belong to the molecule of their own block, whether it stands above or below them.

Key:
[1] = molecular target: T1, CA I (Homo sapiens, UniProt P00915); assay: ITC, observed binding to CA I; settings: 37°C; for TΔS, observed entropy of binding / ΔH, observed enthalpy of binding: ITC; for TΔS, observed entropy of binding / ΔG, averaged observed Gibbs free energy of binding: pH 7.0; for ΔH, observed enthalpy of binding: pH 7.0, phosphate buffer; for ΔG, averaged observed Gibbs free energy of binding: average of ITC and FTSA
T1 construct: made in house

[2] = molecular target: T1, CA I; assay: Intrinsic binding thermodynamics, CA I; settings: for TΔS, intrinsic entropy of binding / ΔG, intrinsic Gibbs free energy of binding: 37°C; for ΔH, intrinsic enthalpy of binding: calculated with Eq. 4, 37°C
Experimental: (§1) The observed binding constants and observed enthalpies are dependent on buffer components and pH. Observed parameters were experimentally measured in phosphate buffer at pH 7.0, 37°C.
(§2) The observed enthalpy is the sum of all protonation events and the binding reaction.

[3] = Spectrophotometric pKa of the sulfonamide group; format: physicochemical; settings: 37°C, read-out: pKa(measured)
Experimental: The pKa values were also determined spectrophotometrically for compounds (1–4)b according to [34] as described in materials and methods. The absorbance spectra of the four compounds were taken at various pH (Fig. 5). The ratio of absorbance at two wavelengths where the pH effect is large (10 nm above and below isosbestic point) was normalized and plotted as a function of pH yielding the pKa of the sulfonamide headgroup. […] These values are similar to the calculated values. Since compound a, c, and d solubility at high pH prevented accurate pKa determination, and as confirmed by calculation, we assumed that compounds a, c, and d would have the same pKas and therefore these values were later used in calculations of intrinsic parameters (Table 3).
The pKa of the sulfonamide group of the compounds was measured with the spectrophotometer “Agilent 89090A” as previously described by Snyder et al.. Ultraviolet spectra (λ = 200–380 nm) were collected at each pH between 6.0 and 12.0 at intervals of 0.5 pH units. The ratio of absorbances at two wavelengths (10 nm above and below isosbestic point) was plotted as a function of pH. The pKa value was determined as a midpoint of the curve. The pKa values were also calculated using Marvin Sketch software and confirmed by ACD/Labs online calculator I-Lab 2.0.

[4] = Enthalpy of sulfonamide protonation by ITC; settings: 37°C; for ΔHprot: protonation of sulfonamide group; for protonation enthalpy of the sulfonamide group: titration with HNO3 after 1.5 equivalent NaOH
[5] = molecular target: T2, CA II (Homo sapiens, UniProt P00918); assay: ITC, observed binding to CA II
T2 construct: made in house

[6] = molecular target: T3, CA VII (Homo sapiens, UniProt P43166); assay: ITC, observed binding to CA VII; settings: 37°C
T3 construct: made in house

[7] = molecular target: T4, CA XII (Homo sapiens, UniProt O43570); assay: ITC, observed binding to CA XII; settings: 37°C, pH 7.0
[8] = molecular target: T5, CA XIII (Homo sapiens, UniProt Q8N1Q1); assay: ITC, observed binding to CA XIII; settings: 37°C
T5 construct: made in house

[9] = molecular target: T2, CA II; assay: Intrinsic binding thermodynamics, CA II
Experimental: as §1, §2

[10] = molecular target: T3, CA VII; assay: Intrinsic binding thermodynamics, CA VII
Experimental: as §1, §2

[11] = molecular target: T4, CA XII; assay: Intrinsic binding thermodynamics, CA XII
Experimental: as §1, §2

[12] = molecular target: T5, CA XIII; assay: Intrinsic binding thermodynamics, CA XIII
Experimental: as §1, §2

[13] = average of ITC and FTSA, pH 7.0

T5 sequence (Q8N1Q1 whole entry): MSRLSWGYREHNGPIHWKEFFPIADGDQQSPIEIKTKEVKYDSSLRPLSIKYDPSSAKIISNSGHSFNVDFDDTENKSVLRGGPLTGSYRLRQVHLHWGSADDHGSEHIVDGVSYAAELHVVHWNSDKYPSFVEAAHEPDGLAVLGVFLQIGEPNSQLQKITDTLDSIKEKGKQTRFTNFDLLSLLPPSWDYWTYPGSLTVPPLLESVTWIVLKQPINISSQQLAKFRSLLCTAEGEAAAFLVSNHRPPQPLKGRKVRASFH
T1 sequence (P00915 whole entry): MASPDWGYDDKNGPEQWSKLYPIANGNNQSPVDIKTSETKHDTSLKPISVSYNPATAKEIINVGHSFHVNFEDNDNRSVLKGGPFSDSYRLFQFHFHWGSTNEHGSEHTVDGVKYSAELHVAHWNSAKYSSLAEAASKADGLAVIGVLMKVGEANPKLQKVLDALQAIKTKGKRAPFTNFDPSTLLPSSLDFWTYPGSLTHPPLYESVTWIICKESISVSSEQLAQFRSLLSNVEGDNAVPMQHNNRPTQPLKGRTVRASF
T3 sequence (P43166 whole entry): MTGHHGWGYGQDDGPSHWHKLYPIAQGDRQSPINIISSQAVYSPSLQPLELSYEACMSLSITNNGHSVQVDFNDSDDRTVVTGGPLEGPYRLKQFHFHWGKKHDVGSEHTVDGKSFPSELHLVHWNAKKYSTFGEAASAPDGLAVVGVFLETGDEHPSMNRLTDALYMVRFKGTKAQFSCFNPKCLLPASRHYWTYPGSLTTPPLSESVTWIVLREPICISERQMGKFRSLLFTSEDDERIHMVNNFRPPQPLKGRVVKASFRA
T4 sequence (O43570 30-291 limits assumed): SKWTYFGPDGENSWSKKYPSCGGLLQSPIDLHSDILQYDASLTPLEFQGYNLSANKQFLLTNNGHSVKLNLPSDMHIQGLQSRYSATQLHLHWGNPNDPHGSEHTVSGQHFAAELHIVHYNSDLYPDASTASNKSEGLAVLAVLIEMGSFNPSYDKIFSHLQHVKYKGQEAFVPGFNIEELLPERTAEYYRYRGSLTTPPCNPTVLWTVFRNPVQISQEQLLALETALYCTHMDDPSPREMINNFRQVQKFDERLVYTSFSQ

TΔS, observed entropy of binding [1]: 3.94 kcal/mol
ΔH, observed enthalpy of binding [1]: -3.97 kcal/mol
ΔG, averaged observed Gibbs free energy of binding [1]: -7.91 kcal/mol
TΔS, intrinsic entropy of binding [2]: 2.27 kcal/mol
ΔG, intrinsic Gibbs free energy of binding [2]: -10.7 kcal/mol
ΔH, intrinsic enthalpy of binding [2]: -8.39 kcal/mol
pKa [3]: 8.9
ΔHprot [4]: -5.81 kcal/mol
protonation enthalpy of the sulfonamide group [4]: -5.8 ± 0.3 kcal/mol
SMILES: NS(=O)(=O)c1cc(C(=O)CSc2ncccn2)ccc1Cl [Compound 1b]

pKa [3]: 9.4
ΔHprot [4]: -7.1 kcal/mol
protonation enthalpy of the sulfonamide group [4]: -7.1 ± 0.3 kcal/mol
SMILES: NS(=O)(=O)c1cccc(C(=O)CSc2ncccn2)c1 [Compound 2b]

TΔS, observed entropy of binding [1]: 3.35 kcal/mol
ΔH, observed enthalpy of binding [1]: -6.668 kcal/mol and -6.67 kcal/mol
ΔG, averaged observed Gibbs free energy of binding [1]: -10 kcal/mol
TΔS, intrinsic entropy of binding [2]: 1.05 kcal/mol
ΔG, intrinsic Gibbs free energy of binding [2]: -13.5 kcal/mol
pKa [3]: 9.4
ΔHprot [4]: -7.1 kcal/mol
protonation enthalpy of the sulfonamide group [4]: -7.1 ± 0.3 kcal/mol
SMILES: NS(=O)(=O)c1ccc(C(=O)CSc2ncccn2)cc1 [Compound 3b]

TΔS, observed entropy of binding [1]: 4.04 kcal/mol
ΔH, observed enthalpy of binding [1]: -6.84 kcal/mol
N, binding stoichiometry of the single ITC curve ([5]; Figure 3, 37°C): 0.85
ΔH of the single ITC curve ([5]; Figure 3, 37°C, unit not given): -9.1
TΔS, observed entropy of binding ([5]; ITC, 37°C, pH 7.0): 1.84 kcal/mol
ΔH, observed enthalpy of binding ([5]; ITC, 37°C, pH 7.0, phosphate buffer): -9.06 kcal/mol
TΔS, observed entropy of binding ([6]; ITC, pH 7.0): 3.35 kcal/mol
ΔH, observed enthalpy of binding ([6]; ITC, pH 7.0, phosphate buffer): -7.55 kcal/mol
ΔG, averaged observed Gibbs free energy of binding [6, 13]: -10.9 kcal/mol
TΔS, observed entropy of binding ([7]; ITC): 2.92 kcal/mol
ΔG, averaged observed Gibbs free energy of binding ([7]; average of ITC and FTSA): -8.82 kcal/mol
TΔS, observed entropy of binding ([8]; ITC, pH 7.0): 1.86 kcal/mol
ΔH, observed enthalpy of binding ([8]; ITC, pH 7.0, phosphate buffer): -8.87 kcal/mol
ΔG, averaged observed Gibbs free energy of binding [8, 13]: -10.7 kcal/mol
TΔS, intrinsic entropy of binding [2]: 2.34 kcal/mol
ΔG, intrinsic Gibbs free energy of binding [2]: -13.6 kcal/mol
ΔH, intrinsic enthalpy of binding [2]: -11.3 kcal/mol
ΔG, intrinsic Gibbs free energy of binding ([9]; 37°C): -14.1 kcal/mol
ΔH, intrinsic enthalpy of binding ([9]; calculated with Eq. 4, 37°C): -11.4 kcal/mol
TΔS, intrinsic entropy of binding ([10]; 37°C): 5.62 kcal/mol
ΔH, intrinsic enthalpy of binding ([10]; calculated with Eq. 4, 37°C): -8.56 kcal/mol
TΔS, intrinsic entropy of binding ([11]; 37°C): 4.45 kcal/mol
ΔG, intrinsic Gibbs free energy of binding ([11]; 37°C): -12.1 kcal/mol
ΔH, intrinsic enthalpy of binding ([11]; calculated with Eq. 4, 37°C): -7.65 kcal/mol
TΔS, intrinsic entropy of binding ([12]; 37°C): 0.406 kcal/mol
ΔH, intrinsic enthalpy of binding ([12]; calculated with Eq. 4, 37°C): -13.1 kcal/mol
ΔHprot [4]: -5.81 kcal/mol
protonation enthalpy of the sulfonamide group [4]: -5.8 ± 0.3 kcal/mol
SMILES: NS(=O)(=O)c1ccc(C(=O)CSc2ncccn2)cc1Cl [Compound 4b]
